Patent US20250325517A1, “ORAL DOSAGE FORMS OF ELRAGLUSIB” (Actuate Therapeutics, Inc., priority 2022, published 2025)
Converted amounts (≈) assume the structure as drawn.

How the values were obtained:
[1] = Photo-Chamber Study 1 (10FV, 50FV, 50V7; visible and UV light); type: physicochemical
From the text: The photo-chamber and ambient light studies used a RP-HPLC method to monitor the following: • elraglusib concentration and % LC • elraglusib main peak Area % • elraglusib RelS1, elraglusib RelS2, and elraglusib Anhydride peak Area % values.
The three solutions were maintained in both 5-mL glass serum vials and UV-transparent plastic cuvettes (each with and without foil overwrap) and exposed to fractions (approximately 0, 25, 50, 75, and 100%) of ICH Q1B photostability conditions (1200 klux-hr in the visible region and 200 watt-h/m^2 in the UV region) using a calibrated photo-chamber.

[2] = Solubility of elraglusib in acetone, acetone:water and THF with and without polymers (24 h, visual and HPLC); type: physicochemical; conditions: for time to precipitation when agitated: ~4% w/w solids; for visual observation: stirred
Method: The solubility of elraglusib API with and without polymers of interest was evaluated in acetone. […] Samples were prepared according to Table 6-13. […] Additional studies were performed to determine if an increased water content would prevent formation of the solvate precipitate and more dilute solutions were tested for potential ASD processing.

In the case of `Cn1cc(C2=C(c3coc4ccc(F)cc34)C(=O)NC2=O)c2cc3c(cc21)OCO3` [elraglusib, 3-(5-fluorobenzofuran-3-yl)-4-(5-methyl-5H-[1,3]dioxolo[4,5-f]indol-7-yl)-1H-pyrrole-2,5-dione], the “% LC loss rate relative to main peak Area % loss rate” value ([1]; photo-exposure) is reported as “approximately 6 times”, the “photo-conversion rate, visible light compared with UV light” value ([1]; vials and cuvettes) is reported as “approximately 5 times” and the “% LC photo-conversion rate in vials (no foil) as % of rate in cuvettes (no foil)” value ([1]; visible light) is reported as “approximately 60%”. For the same compound, the time remaining soluble ([2]; 1.5-2.0% w/w in 95:5 acetone:water) was “over 24 hours”, the “time to precipitation when agitated” value ([2]; 90:10 acetone:water) was 3.5 h and the “time to precipitation when agitated” value ([2]; 95:5 acetone:water) was 2 h. The visual observation ([2]; Table 6-14 Sample 1: 4.02% w/w in Acetone, 30 min) was “Translucent”, the visual observation ([2]; Table 6-14 Sample 1: 4.02% w/w in Acetone, 1 hour) was “Translucent” and the visual observation ([2]; Table 6-14 Sample 1: 4.02% w/w in Acetone, 2 hours) was “Precipitation”. The visual observation ([2]; Table 6-14 Sample 1: 4.02% w/w in Acetone, 4 hours) was “No change”, the visual observation ([2]; Table 6-14 Sample 1: 4.02% w/w in Acetone, 8 hours) was “No change” and the visual observation ([2]; Table 6-14 Sample 1: 4.02% w/w in Acetone, 24 hours) was “No change”. The visual observation ([2]; Table 6-14 Sample 2: 4.02% w/w in THF, 30 min) was “Translucent”, the visual observation ([2]; Table 6-14 Sample 2: 4.02% w/w in THF, 1 hour) was “Translucent” and the visual observation ([2]; Table 6-14 Sample 2: 4.02% w/w in THF, 2 hours) was “Translucent”. The visual observation ([2]; Table 6-14 Sample 2: 4.02% w/w in THF, 4 hours) was “Translucent”, the visual observation ([2]; Table 6-14 Sample 2: 4.02% w/w in THF, 8 hours) was “Translucent” and the visual observation ([2]; Table 6-14 Sample 2: 4.02% w/w in THF, 24 hours) was “Translucent”. The visual observation ([2]; Table 6-14 Sample 3: 4.02% w/w in 95:5 Acetone:Water, 30 min) was “Translucent”, the visual observation ([2]; Table 6-14 Sample 3: 4.02% w/w in 95:5 Acetone:Water, 1 hour) was “Translucent” and the visual observation ([2]; Table 6-14 Sample 3: 4.02% w/w in 95:5 Acetone:Water, 2 hours) was “Precipitation”. For the same compound, the visual observation ([2]; Table 6-14 Sample 3: 4.02% w/w in 95:5 Acetone:Water, 4 hours) was “No change”, the visual observation ([2]; Table 6-14 Sample 3: 4.02% w/w in 95:5 Acetone:Water, 8 hours) was “No change” and the visual observation ([2]; Table 6-14 Sample 3: 4.02% w/w in 95:5 Acetone:Water, 24 hours) was “No change”. For the same compound, the visual observation ([2]; Table 6-14 Sample 4: 3.96% w/w API in Acetone with HPMCAS-MG (7.96% w/w total solids), 30 min) was “Hazy”, the visual observation ([2]; Table 6-14 Sample 4: 3.96% w/w API in Acetone with HPMCAS-MG (7.96% w/w total solids), 1 hour) was “Hazy” and the visual observation ([2]; Table 6-14 Sample 4: 3.96% w/w API in Acetone with HPMCAS-MG (7.96% w/w total solids), 2 hours) was “Hazy but no”. For the same compound, the visual observation ([2]; Table 6-14 Sample 4: 3.96% w/w API in Acetone with HPMCAS-MG (7.96% w/w total solids), 4 hours) was “Precipitation”, the visual observation ([2]; Table 6-14 Sample 4: 3.96% w/w API in Acetone with HPMCAS-MG (7.96% w/w total solids), 8 hours) was “No change” and the visual observation ([2]; Table 6-14 Sample 4: 3.96% w/w API in Acetone with HPMCAS-MG (7.96% w/w total solids), 24 hours) was “No change”. For the same compound, the visual observation ([2]; Table 6-17 Sample 1: 3.99% w/w in 90:10 acetone:water, 30 min) was “Translucent”, the visual observation ([2]; Table 6-17 Sample 1: 3.99% w/w in 90:10 acetone:water, 1 hour) was “Translucent” and the visual observation ([2]; Table 6-17 Sample 1: 3.99% w/w in 90:10 acetone:water, 2 hours) was “Translucent”. For the same compound, the visual observation ([2]; Table 6-17 Sample 1: 3.99% w/w in 90:10 acetone:water, 3.5 hours) was “Precipitation”, the visual observation ([2]; Table 6-17 Sample 1: 3.99% w/w in 90:10 acetone:water, 4 hours) was “No change” and the visual observation ([2]; Table 6-17 Sample 1: 3.99% w/w in 90:10 acetone:water, 21.5 hours) was “No change”. For the same compound, the visual observation ([2]; Table 6-17 Sample 2: 3.99% w/w in 95:5 acetone:water, 30 min) was “Translucent”, the visual observation ([2]; Table 6-17 Sample 2: 3.99% w/w in 95:5 acetone:water, 1 hour) was “Translucent” and the visual observation ([2]; Table 6-17 Sample 2: 3.99% w/w in 95:5 acetone:water, 2 hours) was “Precipitation”. For the same compound, the visual observation ([2]; Table 6-17 Sample 2: 3.99% w/w in 95:5 acetone:water, 3.5 hours) was “No change”, the visual observation ([2]; Table 6-17 Sample 2: 3.99% w/w in 95:5 acetone:water, 4 hours) was “No change” and the visual observation ([2]; Table 6-17 Sample 2: 3.99% w/w in 95:5 acetone:water, 21.5 hours) was “No change”. The visual observation ([2]; Table 6-17 Sample 3: 2.04% w/w in 95:5 acetone:water, 30 min) was “Translucent”, the visual observation ([2]; Table 6-17 Sample 3: 2.04% w/w in 95:5 acetone:water, 1 hour) was “No change” and the visual observation ([2]; Table 6-17 Sample 3: 2.04% w/w in 95:5 acetone:water, 2 hours) was “No change”. The visual observation ([2]; Table 6-17 Sample 3: 2.04% w/w in 95:5 acetone:water, 3.5 hours) was “No change”, the visual observation ([2]; Table 6-17 Sample 3: 2.04% w/w in 95:5 acetone:water, 4 hours) was “No change” and the visual observation ([2]; Table 6-17 Sample 3: 2.04% w/w in 95:5 acetone:water, 21.5 hours) was “No change”. The visual observation ([2]; Table 6-17 Sample 4: 1.84% w/w in 95:5 acetone:water, 30 min) was “Translucent”, the visual observation ([2]; Table 6-17 Sample 4: 1.84% w/w in 95:5 acetone:water, 1 hour) was “No change” and the visual observation ([2]; Table 6-17 Sample 4: 1.84% w/w in 95:5 acetone:water, 2 hours) was “No change”. For the same compound, the visual observation ([2]; Table 6-17 Sample 4: 1.84% w/w in 95:5 acetone:water, 3.5 hours) was “No change”, the visual observation ([2]; Table 6-17 Sample 4: 1.84% w/w in 95:5 acetone:water, 4 hours) was “No change” and the visual observation ([2]; Table 6-17 Sample 4: 1.84% w/w in 95:5 acetone:water, 21.5 hours) was “No change”. The visual observation ([2]; Table 6-17 Sample 5: 1.54% w/w in 95:5 acetone:water, 30 min) was “Translucent”, the visual observation ([2]; Table 6-17 Sample 5: 1.54% w/w in 95:5 acetone:water, 1 hour) was “No change” and the visual observation ([2]; Table 6-17 Sample 5: 1.54% w/w in 95:5 acetone:water, 2 hours) was “No change”. The visual observation ([2]; Table 6-17 Sample 5: 1.54% w/w in 95:5 acetone:water, 3.5 hours) was “No change”, the visual observation ([2]; Table 6-17 Sample 5: 1.54% w/w in 95:5 acetone:water, 4 hours) was “No change” and the visual observation ([2]; Table 6-17 Sample 5: 1.54% w/w in 95:5 acetone:water, 21.5 hours) was “No change”. It also gave a solubility in acetone ([2]; crystallizes at room temperature at static conditions) of 4 % w/w and a solubility at 24 h ([2]; organic solvent or mixture, thermodynamic from solid, acetone, 24 hours, read-out: measured solubility by HPLC) of 13.1 mg/mL (≈ 32.3 mM).
